From article PMC11511194, “Key Factors for Improving Predictive Accuracy and Avoiding Overparameterization of the PBPK Absorption Model in Food Effect Studies of Weakly Basic Water-Insoluble Compounds in Immediate Release Formulations” (Pharmaceutics, 2024)
Read-outs that look alike come from different tables or passages of the source.

Experiments:
[1] = cited from earlier work
CYP3A4 = CYP3A4 intrinsic clearance fitted in PBPK model; details: Fitted to clinical PK profiles
From the text: S2. PBPK model development and validation physicochemical parameters for these three model drugs, including protein binding and Blood-to-Plasma (B/P) ratio, were obtained from experimental results, while log P and pKa were estimated based on the molecular formula using Gastro Plus ADMET software (version 10.3, […]
S2.1. Rivaroxaban PBPK model development and validation
S2.1.1. Rivaroxaban PBPK model development for metabolism and elimination module Given that the metabolic fractions of CYP3A4 and CYP2J2 to the systemic clearance of rivaroxaban were approximately 18% and 14% [1], respectively, and liver hydrolases contributed to about 14% of its systemic clearance, CLint_CYP3A4, CLint_CYP2J2 and CLHLM were fitted according to the metabolic fraction of rivaroxaban in vivo and concentration-time profiles from the SAD clinical trial in Caucasian subjects under fasted state. Considering that rivaroxaban was a substrate of P-gp transporter, and that about 36% and 7% of the parent drug were directly excreted by the kidney and liver, respectively, rivaroxaban may undergo active efflux through the kidney and liver in vivo [2]. Consequently, permeability-limited kidney and liver models were employed to account for the active efflux mechanism of P-gp for rivaroxaban. These models include both passive diffusion and active transport.
Clearances for passive diffusion in the kidney and liver was calculated using Equation S1 [5] and Equation S2 [6], respectively.
CL௉஽,௜ =2×P௔௣௣ × TSA௜ ሺS1ሻ where CLPD,i is the passive diffusion clearance of the drug in compartment i, Papp is the apparent permeability of the drug, and the TSAi is the regional tubular surface area of compartment i.
Log CL௉஽ =0.82×logD଻.ସ +0.5 ሺS2ሻ where CLPD is the passive diffusional clearance of APIs in the liver, and log D 7.4 is the oil-water partition coefficient at pH 7.4 [6] […]
Blood-to-plasma partition ratio 0.714 Measured
Fraction unbound in plasma 0.065 Measured […]
Caco-2(10-6cm/s) (Rivaroxaban) 8.103 Measured […]

[2] = Two-stage biorelevant dissolution (transfer test FaSSGF to FaSSIF); type: physicochemical; details: formulation, gastric to intestinal chamber in vitro
Procedure: Because the solubility of weakly basic water-insoluble compounds is higher in the acidic gastric environment compared to the near-neutral intestinal environment, and that bile salts can enhance the solubility of poorly soluble drugs in the intestine, a two-stage dissolution test was performed to explore the drug transfer process from the stomach to the intestine. The transfer apparatus comprised two USP 2 vessels representing the gastric and intestinal chambers, which are interconnected via a peristaltic pump to simulate first-order gastric emptying dynamics. […] Additional samples in the two-stage dissolution test were analyzed every minute with the same instrument. […]
Precipitation parameters, such as critical supersaturation ratio (CSC) and precipitation rate constant (PRC), were evaluated when precipitation occurs in the neutral intestinal environment after the mixture of solution and undissolved substance is transferred from the gastric chamber in vitro. These parameters were evaluated by fitting the two-stage dissolution profile according to the crystallization kinetics equations [28, 29, 30]. […] The calibrated permeability of drugs, as determined using the Caco-2 Transwell model, was used to represent the permeability of drugs in vivo [31]. […]

Intrinsic clearance of CYP 3A4 (CYP3A4) [µL/min/pmol] | behaviour after transfer from FaSSGF to FaSSIF [2] | Structure (SMILES) | Fraction unbound in plasma ([1]; rivaroxaban, supplement ref 2) | Blood-to-plasma partition ratio ([1]; rivaroxaban, supplement ref 7) | Blood-to-plasma partition ratio ([1]; ticagrelor, supplement ref 18) | Fraction unbound in plasma ([1]; ticagrelor, supplement ref 18)
0.027 | continued to dissolve | O=C(NC[C@H]1CN(c2ccc(N3CCOCC3=O)cc2)C(=O)O1)c1ccc(Cl)s1 [Rivaroxaban] | 0.065 | 0.714 | – | –
5.00 | continued to dissolve | CCCSc1nc(N[C@@H]2C[C@H]2c2ccc(F)c(F)c2)c2nnn([C@@H]3C[C@H](OCCO)[C@@H](O)[C@H]3O)c2n1 [Ticagrelor] | – | – | 0.592 | 0.006
